The source of these data is US20040242591A1, “Oxazolidinone derivatives as pontential antimicrobials” (priority 2001, published 2004).

Where only a bound is given, the exact number is not on record here.

In experiment [1] the test system is S.aureus ATCC 25923. The experiment is described as follows: MIC by agar incorporation method, S.aureus 25923. The class given is cell-based, Staphylococus aureus. Further details: unit not given here. Particulars: Mueller Hinton agar, 10^4 CFU/spot, 18 hours.
Experiment [2] concerns MRSA 15187. Put plainly: MIC by agar incorporation method, MRSA 15187. The class given is cell-based, Methicillin Resistant Staphylococcus aureus. Further details: unit not given here. Particulars: Mueller Hinton agar, 10^4 CFU/spot, 24 hours. The source says:
2) MRSA 15187—Methicillin Resistant Staphylococcus aureus

For experiment [3], the system named is MRSA 562. Put plainly: MIC by agar incorporation method, MRSA 562. Further details: unit not given here. Particulars: Mueller Hinton agar, 10^4 CFU/spot, 24 hours. It is filed as cell-based, Methicillin Resistant Staphylococcus aureus.
Experiment [4] deals with MRSA 33. Put plainly: MIC by agar incorporation method, MRSA 33. It is filed as cell-based, Methicillin Resistant Staphylococcus aureus. Further details: unit not given here. Particulars: Mueller Hinton agar, 10^4 CFU/spot, 24 hours.
Experiment [5] deals with Ent. faecalis ATCC 29212. The experiment is described as follows: MIC by agar incorporation method, E.faecalis 29212. Particulars: Mueller Hinton agar, 10^4 CFU/spot, 18 hours. Further details: unit not given here. The class given is cell-based, Enterococcus faecalis. The source says: 3) Ent. faecalis ATCC 29212—Enterococcus faecalis ATCC 29212
Experiment [6] relates to VRE 6A. The experiment is described as follows: MIC by agar incorporation method, VRE 6A. Particulars: Mueller Hinton agar, 10^4 CFU/spot, 18 hours. Further details: unit not given here. It is filed as cell-based, Enterococcus faecium. The source says:
4) Ent. faecium […]—Enterococcus faecium 6A Van®, Cipro®

Experiment [7] has as its system Strep.pyog. ATCC 19615. Put plainly: MIC by agar incorporation method, S.pyogenes 19615. The class given is cell-based, Streptococcus pyogenes. Further details: unit not given here. The following applies: Mueller Hinton agar, 10^4 CFU/spot, 18 hours. The source says:
6) Strep.pyog. ATCC 19615—Streptococcus pyogenes

Experiment [8] deals with Strep. pne. ATCC 6303. The experiment is described as follows: MIC by agar incorporation method, S. pneum 6303. The class given is cell-based, Streptococcus pneumoniae. Particulars: Mueller Hinton agar, 10^4 CFU/spot, 18 hours. The source says:
5) Strep. pne. ATCC 6303—Streptococcus pneumoniae ATCC 6303

For experiment [9], the system named is S. pneum AB 34. The experiment is described as follows: MIC by agar incorporation method, S. pneum AB 34. It is filed as cell-based, Streptococcus pneumoniae. Further details: unit not given here. The following applies: Mueller Hinton agar, 10^4 CFU/spot, 18 hours.

On to `CC(=O)NC[C@H]1CN(c2ccc(N3CCN(C(=O)c4ccc([N+](=O)[O-])s4)C(C)C3)c(F)c2)C(=O)O1` (stereo partly drawn) [Compound No. 70, (S)-N-[[3-[3-Fluoro-4-[N-1-[3-methyl-4-{2-thienoyl-(5-nitro)}]-piperazinyl]phenyl]-2-oxo-5-oxazolidinyl]methyl]acetamide], for which, in [1], the “In Vitro (MIC) S.aureus 25923” value was under 0.25. The “In Vitro (MIC) MRSA 15187” value in experiment [2] was determined as 0.5. The “In Vitro (MIC) MRSA 562” value in [3] was under 0.25. The “In Vitro (MIC) MRSA 33” value in [4] is reported as under 0.25. For the same compound, in experiment [5], the “In Vitro (MIC) E.faecalis 29212” value is given as 2. The “In Vitro (MIC) VRE 6A” value in experiment [6] is given as 1. Further, the “In Vitro (MIC) S.pyogenes 19615” value in experiment [7] is under 0.25. The “In Vitro (MIC) S. pneum 6303” value in [8] turned out to be 4 µg/mL. The “In Vitro (MIC) S. pneum AB 34” value in [9] is reported as 4.
Regarding `CC(=O)NC[C@H]1CN(c2ccc(N3CCN(Cc4oc(C=O)cc4C)CC3)c(F)c2)C(=O)O1` [Compound No. 71], the “In Vitro (MIC) S.aureus 25923” value in experiment [1] came out at 4. For the same compound, the “In Vitro (MIC) MRSA 15187” value in experiment [2] is reported as 2. In addition, the “In Vitro (MIC) MRSA 562” value in experiment [3] was 2. In addition, the “In Vitro (MIC) MRSA 33” value in [4] stood at 4. Further, the “In Vitro (MIC) E.faecalis 29212” value in experiment [5] is on record as over 8. The “In Vitro (MIC) VRE 6A” value in experiment [6] is on record as over 8. The “In Vitro (MIC) S.pyogenes 19615” value in [7] is on record as over 8. In addition, the “In Vitro (MIC) S. pneum 6303” value in experiment [8] is over 8 µg/mL. In addition, the “In Vitro (MIC) S. pneum AB 34” value in experiment [9] was over 8.
In the case of `CC(=O)NC[C@H]1CN(c2ccc(N3CCC(N(C)C(=O)c4ccc([N+](=O)[O-])o4)C(C)C3)c(F)c2)C(=O)O1` (stereo partly drawn) [Compound No. 74, (S)-N-[[3-[3-Fluoro-4-[[3-methyl-4-{N-methyl-2-furoyl-(5-nitro)}]-aminopiperidine-1-y]phenyl]-2-oxo-5-oxazolidinyl]methyl]acetamide], the “In Vitro (MIC) S.aureus 25923” value in [1] was under 0.5. Moreover, the “In Vitro (MIC) MRSA 15187” value in experiment [2] was under 0.5. Moreover, the “In Vitro (MIC) MRSA 562” value in [3] is listed as under 0.5. Further, the “In Vitro (MIC) MRSA 33” value in experiment [4] was 1. Also, the “In Vitro (MIC) E.faecalis 29212” value in [5] is 1. Moreover, the “In Vitro (MIC) VRE 6A” value in [6] is 1. In addition, the “In Vitro (MIC) S.pyogenes 19615” value in [7] is 8. In addition, the “In Vitro (MIC) S. pneum 6303” value in [8] was 8 µg/mL. Also, in experiment [9], the “In Vitro (MIC) S. pneum AB 34” value is on record as 8.
For `CCN(C(=O)c1ccc([N+](=O)[O-])s1)C1CCN(c2ccc(N3C[C@H](CNC(C)=O)OC3=O)cc2F)CC1` [Compound No. 79, (S)-N-[[3-[3-Fluoro-4-[4-{N-ethyl-2-thienoyl-(5-nitro)}aminopiperidine-1-yl]phenyl]-2-oxo-5-oxazolidinyl]methyl]acetamide], in [1], the “In Vitro (MIC) S.aureus 25923” value was 0.5. For the same compound, in [2], the “In Vitro (MIC) MRSA 15187” value is on record as 0.5. In addition, in experiment [3], the “In Vitro (MIC) MRSA 562” value is reported as 0.5. In experiment [4], the “In Vitro (MIC) MRSA 33” value was determined as 0.5. The “In Vitro (MIC) E.faecalis 29212” value in experiment [5] is 2. The “In Vitro (MIC) VRE 6A” value in experiment [6] is reported as 2. For the same compound, in experiment [7], the “In Vitro (MIC) S.pyogenes 19615” value is 0.5. Besides, the “In Vitro (MIC) S. pneum 6303” value in experiment [8] stood at 4 µg/mL. Moreover, the “In Vitro (MIC) S. pneum AB 34” value in [9] worked out at 4.
On to `CCN(C(=O)c1ccc([N+](=O)[O-])o1)C1CCN(c2ccc(N3C[C@H](CNC(C)=O)OC3=O)cc2F)CC1` [Compound No. 80, (S)-N-[[3-[3-Fluoro-4-[4-{N-ethyl-2-furoyl-(5-nitro)}aminopiperidine-1-yl]phenyl]-2-oxo-5-oxazolidinyl]methyl]acetamide], for which the “In Vitro (MIC) S.aureus 25923” value in experiment [1] is given as 1. Besides, the “In Vitro (MIC) MRSA 15187” value in experiment [2] is reported as 1. Further, the “In Vitro (MIC) MRSA 562” value in experiment [3] is recorded as 0.5. In addition, the “In Vitro (MIC) MRSA 33” value in experiment [4] is reported as 1. Moreover, the “In Vitro (MIC) E.faecalis 29212” value in experiment [5] worked out at 1. Moreover, the “In Vitro (MIC) VRE 6A” value in experiment [6] came out at 1. The “In Vitro (MIC) S.pyogenes 19615” value in experiment [7] is recorded as 2. In addition, in experiment [8], the “In Vitro (MIC) S. pneum 6303” value amounted to 4 µg/mL. The “In Vitro (MIC) S. pneum AB 34” value in experiment [9] was 4.
Take `CCN(Cc1ccc([N+](=O)[O-])s1)C1CCN(c2ccc(N3C[C@H](CNC(C)=O)OC3=O)cc2F)CC1` [Compound No. 83, (S)-N-[[3-[3-Fluoro-4-[4-{N-ethyl-N-2-thiophenyl-(5-nitro)methyl}-aminopiperidine-1-yl]phenyl]-2-oxo-5-oxazolidinyl]methyl]acetamide]: the “In Vitro (MIC) S.aureus 25923” value in experiment [1] is 4. Also, in experiment [2], the “In Vitro (MIC) MRSA 15187” value is recorded as 4. For the same compound, the “In Vitro (MIC) MRSA 562” value in experiment [3] is 4. Besides, in experiment [4], the “In Vitro (MIC) MRSA 33” value was 4. Moreover, the “In Vitro (MIC) E.faecalis 29212” value in [5] is on record as 4. Besides, the “In Vitro (MIC) VRE 6A” value in experiment [6] worked out at 4. Further, the “In Vitro (MIC) S.pyogenes 19615” value in [7] stood at 8. In [8], the “In Vitro (MIC) S. pneum 6303” value turned out to be 8 µg/mL. Also, in [9], the “In Vitro (MIC) S. pneum AB 34” value worked out at 8.
With `CC(=O)NC[C@H]1CN(c2ccc(N3CCC(NCc4ccc([N+](=O)[O-])s4)CC3)c(F)c2)C(=O)O1` [Compound No. 84, (S)-N-[[3-[3-Fluoro-4-[4-{N-thienyl-(5-nitro)methyl}-aminopiperidine-1-yl]phenyl]-2-oxo-5-oxazolidinyl]methyl]acetamide], in [1], the “In Vitro (MIC) S.aureus 25923” value is recorded as 2. Besides, the “In Vitro (MIC) MRSA 15187” value in experiment [2] was 2. Also, the “In Vitro (MIC) MRSA 562” value in experiment [3] was 2. Also, the “In Vitro (MIC) MRSA 33” value in experiment [4] is 2. Besides, in experiment [5], the “In Vitro (MIC) E.faecalis 29212” value came to 1. For the same compound, the “In Vitro (MIC) VRE 6A” value in [6] came to 2. Further, the “In Vitro (MIC) S.pyogenes 19615” value in [7] was determined as 1. Further, the “In Vitro (MIC) S. pneum 6303” value in experiment [8] stood at 2 µg/mL. Moreover, the “In Vitro (MIC) S. pneum AB 34” value in experiment [9] is recorded as 2.
`CC(=O)NC[C@H]1CN(c2ccc(N3CCC(N=Cc4ccc([N+](=O)[O-])o4)CC3)c(F)c2)C(=O)O1` [Compound No. 85, (S)-N-[[3-[3-Fluoro-4-[4-{2-furyl-(5-nitro)methylene]-aminopiperidine-1-yl]phenyl]-2-oxo-5-oxazolidinyl]methyl]acetamide]: in experiment [1], the “In Vitro (MIC) S.aureus 25923” value amounted to 4. Also, the “In Vitro (MIC) MRSA 15187” value in [2] amounted to 4. Further, the “In Vitro (MIC) MRSA 562” value in [3] is recorded as 4. In addition, in [4], the “In Vitro (MIC) MRSA 33” value is 4. In experiment [5], the “In Vitro (MIC) E.faecalis 29212” value was over 8. Moreover, in experiment [6], the “In Vitro (MIC) VRE 6A” value was over 8. The “In Vitro (MIC) S.pyogenes 19615” value in [7] is recorded as 2. Further, the “In Vitro (MIC) S. pneum 6303” value in experiment [8] was 4 µg/mL. Moreover, the “In Vitro (MIC) S. pneum AB 34” value in [9] is reported as 4.
With `CC(=O)NC[C@H]1CN(c2ccc(N3CCC(NCc4ccc([N+](=O)[O-])o4)CC3)c(F)c2)C(=O)O1` [Compound No. 86, (S)-N-[[3-[3-Fluoro-4-[4-{N-2-furyl-(5-nitro)methyl}-aminopiperidine-1-yl]phenyl]-2-oxo-5-oxazolidinyl]methyl]acetamide], in experiment [1], the “In Vitro (MIC) S.aureus 25923” value amounted to 1. For the same compound, the “In Vitro (MIC) MRSA 15187” value in experiment [2] is 1. The “In Vitro (MIC) MRSA 562” value in experiment [3] was found to be 1. Also, the “In Vitro (MIC) MRSA 33” value in experiment [4] came out at 1. For the same compound, in experiment [5], the “In Vitro (MIC) E.faecalis 29212” value stood at 0.5. In addition, the “In Vitro (MIC) VRE 6A” value in experiment [6] was 0.5. Further, in experiment [7], the “In Vitro (MIC) S.pyogenes 19615” value was under 0.25. Further, the “In Vitro (MIC) S. pneum 6303” value in experiment [8] was determined as 2 µg/mL. Besides, in experiment [9], the “In Vitro (MIC) S. pneum AB 34” value is on record as 2.
